The values that follow come from patent US12441768B2, “Compositions and methods for treating endometriosis” (EndoMet Biosciences, Inc., priority 2018, dated 2025).

Broadly, the Kd is a measure of binding affinity in units of concentration.

Where a SMILES comes first, the peptide text is derived from it. Some results are limits rather than exact numbers.

In the test the target is T1, β-catenin (Homo sapiens, UniProt P35222).
T1 sequence (P35222 1-781): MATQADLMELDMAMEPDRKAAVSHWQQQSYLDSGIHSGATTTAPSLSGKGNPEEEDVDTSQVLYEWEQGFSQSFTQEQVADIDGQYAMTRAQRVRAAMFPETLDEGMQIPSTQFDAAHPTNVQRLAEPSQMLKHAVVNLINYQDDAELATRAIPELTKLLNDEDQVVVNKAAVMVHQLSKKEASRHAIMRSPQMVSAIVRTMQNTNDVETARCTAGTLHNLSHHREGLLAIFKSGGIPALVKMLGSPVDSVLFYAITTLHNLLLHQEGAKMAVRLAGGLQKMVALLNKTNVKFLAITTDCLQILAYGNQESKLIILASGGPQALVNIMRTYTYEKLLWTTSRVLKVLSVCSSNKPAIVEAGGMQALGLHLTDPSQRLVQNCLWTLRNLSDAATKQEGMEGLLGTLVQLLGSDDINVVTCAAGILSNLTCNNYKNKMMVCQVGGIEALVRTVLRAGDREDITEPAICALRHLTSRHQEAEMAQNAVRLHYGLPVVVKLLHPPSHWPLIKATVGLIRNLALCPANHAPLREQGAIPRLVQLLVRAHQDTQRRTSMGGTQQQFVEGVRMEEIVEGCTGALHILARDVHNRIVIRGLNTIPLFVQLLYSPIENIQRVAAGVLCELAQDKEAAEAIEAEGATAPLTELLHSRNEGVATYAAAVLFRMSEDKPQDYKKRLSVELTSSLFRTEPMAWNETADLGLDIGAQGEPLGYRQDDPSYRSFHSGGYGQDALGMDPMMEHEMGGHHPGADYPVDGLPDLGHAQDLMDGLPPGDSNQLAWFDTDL
In words: KD50 measurement using competitive fluorescence polarization (FP) with labelled TCF4. In kind it is binding. The settings on record: fluorescence polarization, β-catenin; for Kd: read-out: β-Cat FP KD. The gist of the method: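 Competitive FP in which unlabelled inhibitor (10 nM to 30 uM dilution series) displaces 5 nM labelled TCF4 from 100 nM β-catenin, room temperature. Read-out ex 470 nm, em 520 nm; experiment repeated three times.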
(In fluorescence polarisation assays a small probe gives low polarisation when free and higher when bound to something large.)

Turning to `CC[C@H](C)[C@@H]1NC(=O)[C@H](CC(C)C)NC(=O)[C@H](Cc2ccccc2)NC(=O)[C@H](Cc2c[nH]c3ccccc23)NC(=O)CCCCCNC(=O)C[C@@H](C(=O)O)NC(=O)[C@H](Cc2c[nH]c3ccccc23)NC(=O)[C@H](C)NC(=O)[C@H](CS)NC1=O` [compound 245] (HELM PEPTIDE1{[O=C(CCCCCN[*:1])[*:2]].W.F.L.I.C.A.W.D}$PEPTIDE1,PEPTIDE1,1:R1-9:R3$$$V2.0), the “β-Cat FP Hill slope” value is 1.28 and the equilibrium dissociation constant (Kd) is less than 400 nM.
With `CCCCCCCCCCCC(=O)N[C@@H](Cc1c[nH]c2ccccc12)C(=O)N(C)[C@@H](C)C(=O)N[C@@H](CCC(N)=O)C(=O)N[C@@H](CO)C(=O)N[C@H](C(=O)N[C@@H](CC(C)C)C(=O)N[C@@H](CC(=O)O)C(=O)N[C@H]1CCC(=O)NCCCC[C@@H](C(=O)N[C@H](C(=O)N[C@@H](Cc2c[nH]c3ccccc23)C(=O)NCC(N)=O)C(C)C)NC(=O)[C@H](CCC(N)=O)NC(=O)[C@H](C2CCCCC2)NC(=O)[C@H](Cc2c[nH]cn2)NC1=O)[C@@H](C)CC` [compound 471] (HELM PEPTIDE1{[CCCCCCCCCCCC(=O)[*:2]].W.[meA].Q.S.I.L.D.E.H.[O=C([C@@H](N[*:1])C1CCCCC1)[*:2]].Q.K.V.W.G.[am]}$PEPTIDE1,PEPTIDE1,9:R3-13:R3$$$V2.0), the Kd was less than 400 nM.
For `CCCCCCCCC(=O)N[C@@H](Cc1c[nH]c2ccccc12)C(=O)N(C)[C@@H](C)C(=O)N[C@@H](CCC(N)=O)C(=O)N[C@H]1CCCCNC(=O)CC[C@@H](C(=O)N[C@@H](Cc2c[nH]cn2)C(=O)N[C@H](C(=O)N[C@@H](CCC(N)=O)C(=O)N[C@@H](CCCNC(=N)N)C(=O)N[C@H](C(=O)N[C@@H](Cc2c[nH]c3ccccc23)C(=O)NCC(N)=O)C(C)C)C(C)C)NC(=O)[C@H](CC(=O)O)NC(=O)[C@H](CC(C)C)NC(=O)[C@H](C2CCCCC2)NC1=O` [compound 422] (HELM PEPTIDE1{[CCCCCCCCC(=O)[*:2]].W.[meA].Q.K.[O=C([C@@H](N[*:1])C1CCCCC1)[*:2]].L.D.E.H.V.Q.R.V.W.G.[am]}$PEPTIDE1,PEPTIDE1,5:R3-9:R3$$$V2.0), the equilibrium dissociation constant (Kd) lay in the range of 400 to 1000 nM.
Still for that read-out and setting: with `CCCCCCCCCCCC(=O)N[C@@H](CCC(=O)O)C(=O)N[C@@H](CC(=O)O)C(=O)N1CCC[C@H]1C(=O)N[C@@H](CCC(N)=O)C(=O)N[C@H]1CCCCNC(=O)CC[C@@H](C(=O)N[C@@H](Cc2c[nH]cn2)C(=O)N[C@@H](CC(C)C)C(=O)N[C@@H](CCC(N)=O)C(=O)N[C@@H](CCCNC(=N)N)C(=O)N[C@H](C(=O)N[C@@H](CC(C)C)C(=O)N[C@@H](CCCCN)C(N)=O)C(C)C)NC(=O)[C@H](CC(=O)O)NC(=O)[C@H](CC(C)C)NC(=O)[C@H]([C@@H](C)CC)NC1=O` [compound 444] (HELM PEPTIDE1{[CCCCCCCCCCCC(=O)[*:2]].E.D.P.Q.K.I.L.D.E.H.L.Q.R.V.L.K.[am]}$PEPTIDE1,PEPTIDE1,6:R3-10:R3$$$V2.0) the figure was less than 400 nM.
For `CC[C@H](C)[C@@H]1NC(=O)[C@@H](NC(=O)[C@H](CCC(N)=O)NC(=O)[C@H](C)N(C)C(=O)[C@@H](N)Cc2c[nH]c3ccccc23)CCCCNC(=O)CC[C@@H](C(=O)N[C@@H](Cc2c[nH]cn2)C(=O)N[C@H](C(=O)N[C@@H](CCC(N)=O)C(=O)N[C@@H](CCCNC(=N)N)C(=O)N[C@H](C(=O)N[C@@H](Cc2c[nH]c3ccccc23)C(=O)NCC(N)=O)C(C)C)C(C)C)NC(=O)[C@H](CC(=O)O)NC(=O)[C@H](CC2CCCCC2)NC1=O` [compound 406] (HELM PEPTIDE1{W.[meA].Q.K.I.[Cha].D.E.H.V.Q.R.V.W.G.[am]}$PEPTIDE1,PEPTIDE1,4:R3-8:R3$$$V2.0), the dissociation constant Kd was greater than 30000 nM.
Turning to `CCCCCCCCC(=O)N[C@@H](Cc1c[nH]c2ccccc12)C(=O)N(C)[C@@H](C)C(=O)N[C@@H](CCC(N)=O)C(=O)N[C@@H](CO)C(=O)N[C@H](C(=O)N[C@@H](CC(C)C)C(=O)N[C@@H](CC(=O)O)C(=O)N[C@H]1CCC(=O)NCCCC[C@@H](C(=O)N[C@H](C(=O)N[C@@H](Cc2c[nH]c3ccccc23)C(=O)NCC(N)=O)C(C)C)NC(=O)[C@H](CCC(N)=O)NC(=O)[C@H](C(C)C)NC(=O)[C@H](Cc2c[nH]cn2)NC1=O)[C@@H](C)CC` [compound 438] (HELM PEPTIDE1{[CCCCCCCCC(=O)[*:2]].W.[meA].Q.S.I.L.D.E.H.V.Q.K.V.W.G.[am]}$PEPTIDE1,PEPTIDE1,9:R3-13:R3$$$V2.0), the Kd is less than 400 nM.
`CC[C@H](C)[C@@H]1NC(=O)[C@@H](NC(=O)[C@H](CCC(N)=O)NC(=O)C(C)(C)NC(=O)[C@H](Cc2c[nH]c3ccccc23)NC(C)=O)CCCCNC(=O)C[C@@H](C(=O)N[C@@H](Cc2c[nH]cn2)C(=O)N[C@H](C(=O)N[C@@H](CCC(N)=O)C(=O)N[C@@H](CCCNC(=N)N)C(=O)N[C@H](C(=O)N[C@@H](Cc2c[nH]c3ccccc23)C(N)=O)C(C)C)C2CCCCC2)NC(=O)[C@H](CC(N)=O)NC(=O)[C@H](CC(C)C)NC1=O` [compound 455] (HELM PEPTIDE1{[ac].W.[Aib].Q.K.I.L.N.D.H.[O=C([C@@H](N[*:1])C1CCCCC1)[*:2]].Q.R.V.W.[am]}$PEPTIDE1,PEPTIDE1,5:R3-9:R3$$$V2.0): the “β-Cat FP Hill slope” value was determined as 1.03 and the Kd was less than 400 nM.
As for “H-GGGDDLGANDELISFKDEGEQEEKSSENSSAERDLADVKSSLVNEK-NH2 [compound 266]”, the “β-Cat FP Hill slope” value is reported as 0.88 and the dissociation constant (Kd) was less than 400 nM.
For `CC[C@H](C)[C@H](NC(=O)[C@H](CC(C)C)NC(=O)[C@@H](NC(=O)[C@H](Cc1c[nH]c2ccccc12)NC(C)=O)[C@@H](C)CC)C(=O)N[C@@H](C)C(=O)N[C@@H](Cc1ccccc1)C(=O)N[C@@H](Cc1c[nH]c2ccccc12)C(=O)NCC(=O)O` [compound 263] (Ac-WILIAFWG-OH) the same measures were 3 and 400 to 1000 nM.
On the same counts, the results for `CC[C@H](C)[C@@H]1NC(=O)[C@@H](NC(=O)[C@H](CCC(N)=O)NC(=O)[C@H](C)N(C)C(=O)[C@@H](N)Cc2c[nH]c3ccccc23)CCCNC(=O)CC[C@@H](C(=O)N[C@@H](Cc2c[nH]cn2)C(=O)N[C@H](C(=O)N[C@@H](CCC(N)=O)C(=O)N[C@@H](CCCNC(=N)N)C(=O)N[C@H](C(=O)N[C@@H](Cc2c[nH]c3ccccc23)C(=O)NCC(N)=O)C(C)C)C2CCCCC2)NC(=O)[C@H](CC(=O)O)NC(=O)[C@H](CC(C)C)NC1=O` [compound 423] (HELM PEPTIDE1{W.[meA].Q.[Orn].I.L.D.E.H.[O=C([C@@H](N[*:1])C1CCCCC1)[*:2]].Q.R.V.W.G.[am]}$PEPTIDE1,PEPTIDE1,4:R3-8:R3$$$V2.0) are 0.7 and 400 to 1000 nM.
For `CC[C@H](C)[C@@H]1NC(=O)[C@H](CC(C)C)NC(=O)[C@H](Cc2ccc(O)cc2)NC(=O)[C@H](Cc2c[nH]c3ccccc23)NC(=O)[C@H](CCSC)NC(=O)[C@H](CCCNC(=N)N)NC(=O)[C@H](CO)NC(=O)[C@@H](N)CCCNC(=O)[C@H](Cc2c[nH]c3ccccc23)NC(=O)[C@H](Cc2ccccc2)NC(=O)[C@H](CO)NC1=O` [compound 277] (HELM PEPTIDE1{[Orn].S.R.M.W.Y.L.I.S.F.W}$PEPTIDE1,PEPTIDE1,1:R3-11:R2$$$V2.0) the same measures were 0.7 and greater than 30000 nM.
On to `CC[C@H](C)[C@H](NC(=O)[C@H](CC(C)C)NC(=O)[C@H](Cc1ccccc1)NC(=O)[C@H](Cc1c[nH]c2ccccc12)NC(=O)[C@H](CCSC)NC(=O)[C@H](CCCNC(=N)N)NC(=O)[C@H](CO)NC(=O)[C@@H](N)CCSC)C(=O)N[C@@H](CO)C(=O)N[C@@H](Cc1ccccc1)C(=O)N[C@@H](Cc1c[nH]c2ccccc12)C(=O)N[C@@H](CCCCN)C(N)=O` [compound 6] (H-MSRMWFLISFWK-NH2), for which the Kd was greater than 30000 nM.
